According to patent publication US5516889A, “Synthetic thrombin receptor peptides” (University Technologies International, Inc., priority 1995, dated 1996):
Where two headings read alike, the source gives them in different places. Blank lines part the entries; values can stand above or below the compound they belong to. Residues, ends and D or L forms follow the SMILES beside them. *: point of attachment. Propionyl = CCC(=O)*

Experiments:
[1] = system: thrombin receptor (rat thoracic aorta rings, intact endothelium); conditions: for Agonist (relaxation) activity: precontracted with 0.1 μM noradrenaline
Protocol: Thoracic RA rings (2 mm×3 mm), obtained from male albino Sprague Dawley rats, were equilibrated (about 1 h, 37° ) in the same organ bath buffer as was used for the LM tissue, and tension (baseline 1.0 g) was monitored isometrically using either Statham or Grass force-displacement transducers. The presence of an intact endothelium was ascertained by monitoring a relaxation response to acetylcholine (ACh, 1 μM) in a preparation that was submaximally (EC75) contracted by 0.1 μM noradrenaline (NA) in the presence of 0.1 mM ascorbic acid (to preserve the catecholamine). Only tissues yielding a relaxation concentration-response curve between 0.01 and 10 μM acetylcholine (maximal relaxation of 70 to 90%, relative to the tension developed by 0.1 μM NA) were used for the further evaluation of the receptor-derived peptides. The assay of TRP responsiveness was done (e.g. see FIG. 1) on tissues that were precontacted with 0.1 μM NA at 30 min time intervals. Tissues were washed approx. 5 min after the application of TRPs. […] For purposes of comparison, the same stock solutions of an individual peptide were evaluated, relative to P5, in both the RA and LM bioassays. When possible, both assays were done simultaneously on the same day.
Weighed peptide samples were routinely dissolved in 50 mM phosphate buffer, pH 7.4, to yield stock solutions, from which volumes of up to 0.2 mL were added directly to the organ bath; the concentrations of all stock solutions used were verified by quantitative amino acid analysis of aliquots. Pr-P4 and Pr-P4--NH2 were dissolved in 40 mM phosphate buffer, pH 7.4, containing 20% v/v absolute ethanol (i.e. 8 Vol of the above 50 mM phosphate buffer +2 Vol. ethanol). […] Indomethacin was dissolved in ethanol, such that the final ethanol concentration in the organ bath was at or lower than 0.01% v/v; this concentration of ethanol alone had no effect on the bioassay systems.

[2] = molecular target: T1, thrombin receptor (guinea pig gastric longitudinal muscle strips) (Cavia porcellus, UniProt A0A286XH07); conditions: for Effect of inhibitor on contractile actions of P5--NH2 and Pr-P4: GLM
T1 sequence (A0A286XH07 24-426): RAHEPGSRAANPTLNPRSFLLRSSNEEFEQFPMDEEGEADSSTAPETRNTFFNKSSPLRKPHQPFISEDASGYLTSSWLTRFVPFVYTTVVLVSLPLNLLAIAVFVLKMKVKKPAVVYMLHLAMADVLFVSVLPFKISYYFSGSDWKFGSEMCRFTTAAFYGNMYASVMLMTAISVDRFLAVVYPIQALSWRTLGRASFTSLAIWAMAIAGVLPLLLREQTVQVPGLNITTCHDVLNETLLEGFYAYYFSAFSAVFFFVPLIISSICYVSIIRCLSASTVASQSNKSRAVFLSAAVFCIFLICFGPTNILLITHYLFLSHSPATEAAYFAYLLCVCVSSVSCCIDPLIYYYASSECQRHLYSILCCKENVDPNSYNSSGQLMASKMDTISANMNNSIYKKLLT
Protocol: (§1) The guinea pig gastric longitudinal muscle (GLM) strips and the rat thoracic aorta (RA) ring preparations were isolated as previously described 14, 15. In brief, gastric LM strips (3×10 mm), obtained from male albino Hartley strain guinea pigs were equilibrated for about 1.5 h at 37° (in an aerated (95% O2 /5% CO2) Krebs-Henseleit buffer (3 mL) of the following composition (in mM): NaCl, 118; KCl, 4.7; CaCl2, 2.5; MgCl2, 1.2; NaHCO3, 25; KH2 PO4, 1.2; and glucose, 10. The pH was maintained at 7.4. Rat gastric LM strips (3×10 mm) were obtained, as for the GLM strips, from male albino Sprague Dawley animals (250-300 g). The stomach, opened along the greater curvature, was stripped free of all mucosal tissue under microscopic visualization and longitudinal tissue strips were cut exactly at right angles to the visible circular muscle bundles. Tissue strips were pre-equilibrated in the buffer described above. Each tissue was challenged twice each in succession at timed intervals with 50 nM carbachol (20 min intervals), 1 μM angiotensin-II (1 h intervals) and 95 μM (60 μg/mL) receptor pentapeptide (P5, SFLLR, SEQ ID NO: 2) (25 min intervals for GLM; 30-35 min for RLM); tissues were washed at 10 and 15 min after the additions of agonists. Contractions were monitored isometrically using Statham force-displacement transducers. Only tissues responding well to all three agonists were used further for the evaluation of the biological activities of P5 and other peptide agonists.

[3] = molecular target: T2, thrombin receptor (rat gastric longitudinal muscle strips) (Rattus norvegicus, UniProt P26824); assay: Rat gastric longitudinal muscle (RLM) strip contractile assay; format: cell-based
T2 construct: Rat gastric LM strips (3×10 mm) were obtained; from tissue; host or cells: rat (Sprague Dawley) gastric longitudinal muscle strips
T2 sequence (P26824 22-432): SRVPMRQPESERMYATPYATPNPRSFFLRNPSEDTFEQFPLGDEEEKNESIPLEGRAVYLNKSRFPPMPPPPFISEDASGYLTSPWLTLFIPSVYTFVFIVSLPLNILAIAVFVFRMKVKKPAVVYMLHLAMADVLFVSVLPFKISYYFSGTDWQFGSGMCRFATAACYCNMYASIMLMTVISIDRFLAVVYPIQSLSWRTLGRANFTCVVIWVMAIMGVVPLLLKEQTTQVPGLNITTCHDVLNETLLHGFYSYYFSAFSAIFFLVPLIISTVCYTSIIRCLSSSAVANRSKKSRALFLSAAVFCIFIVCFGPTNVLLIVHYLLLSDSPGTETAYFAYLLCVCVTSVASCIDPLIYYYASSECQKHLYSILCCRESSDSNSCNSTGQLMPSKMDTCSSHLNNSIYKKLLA
Description: We obtained an evaluation of the potencies of the various TRPs, relative to P5, by using the linear portions of the concentration-effect curves, so as to calculate for several response levels the average ratio of concentrations (REC) of an individual TRP, relative to concentration of P5 that caused the same contractile response (i.e. REC =ECTRP .div.ECPS). […] In the RA assay, a similar approach to the estimate of relative potencies (REC S) was used, even though all agonists, except for P5--OCH3, appeared to cause equivalent maximal relaxation (FIG. 2, lower).
as §1, with “peptide agonists. For the GLM and RLM assays, concentration-effect curves for all peptides were constructed by expressing the response of each agonist as a percentage (% P595) relative to the contraction caused by 95 μM (60 μg/mL) P5 (0.9±0.1 g tension: mean ±S.E.M. for n=12 in the GLM; 1.6±0.9 g tension: mean ±S.E.M. for n=36 in the RLM).” for “peptide agonists.”
Weighed peptide samples were routinely dissolved in 50 mM phosphate buffer, pH 7.4, to yield stock solutions, from which volumes of up to 0.2 mL were added directly to the organ bath; the concentrations of all stock solutions used were verified by quantitative amino acid analysis of aliquots. Pr-P4 and Pr-P4--NH2 were dissolved in 40 mM phosphate buffer, pH 7.4, containing 20% v/v absolute ethanol (i.e. 8 Vol of the above 50 mM phosphate buffer +2 Vol. ethanol). Control aliquots of the ethanol-containing phosphate buffer alone had no effect on either of the bioassay systems. Acetylcholine, carbachol, indomethacin, noradrenaline and angiotensin-II and thrombin (human, 3000 to 4000 U/mg; 1 U/mL.perspectiveto.10 nM) were from Sigma (St. Louis, Mo.); genistein (GS) was from ICN Biochemicals, Costa Mesa, Calif. Tyrphostin (TP) (RG 50864, also designated AG213) was obtained through the courtesy of Dr. R. R. Swillo, Rhone-Poulenc Rorer (Collegeville, Pa). […] Indomethacin was dissolved in ethanol, such that the final ethanol concentration in the organ bath was at or lower than 0.01% v/v; this concentration of ethanol alone had no effect on the bioassay systems.

[4] = average concentration ratio relative to P5 causing equal relaxation response (REC = EC TRP ÷ EC P5)
[5] = average concentration ratio relative to P5 causing equal contractile response (REC = EC TRP ÷ EC P5)

Structure (SMILES): CC(C)C[C@H](NC(=O)[C@H](CC(C)C)NC(=O)[C@H](Cc1ccccc1)NC(=O)[C@@H](N)CO)C(=O)N[C@@H](CCCN=C(N)N)C(=O)N[C@@H](CC(N)=O)C(=O)N1CCC[C@H]1C(=O)O [P7, S42 FLLRNP48] (H-SFLLRNP-OH)
Relative potency (REC) RLM [3]: 0.3

Structure (SMILES): CC(C)C[C@H](NC(=O)[C@H](CC(C)C)NC(=O)[C@H](Cc1ccccc1)NC(=O)[C@@H](N)CO)C(=O)N[C@@H](CCCNC(=N)N)C(=O)N[C@@H](CC(N)=O)C(=O)N1CCC[C@H]1C(=O)O [P7, S42 FLLRNP48] (H-SFLLRNP-OH)
Relative potency (REC) RA [1, 4]: 1.1
Relative potency (REC) GLM [2, 5]: 0.4

Structure (SMILES): CC(C)C[C@H](NC(=O)[C@H](CC(C)C)NC(=O)[C@H](Cc1ccccc1)NC(=O)[C@@H](N)CO)C(=O)N[C@@H](CCCNC(=N)N)C(=O)N[C@@H](CC(N)=O)C(=O)N1CCC[C@H]1C(N)=O [P7-NH2, S42 FLLRNP48 -amide] (H-SFLLRNP-NH2)
Agonist (relaxation) activity ([1]; RA): active
Relative potency (REC) RA [1, 4]: 0.08
Relative potency (REC) GLM [2, 5]: 0.04

Structure (SMILES): CCC(=O)N[C@@H](Cc1ccccc1)C(=O)N[C@@H](CC(C)C)C(=O)N[C@@H](CC(C)C)C(=O)N[C@@H](CCCNC(=N)N)C(N)=O [Pr-P4-NH2, N-propionyl-F43 -LLR46 -amide] (Propionyl-FLLR-NH2)
Relative potency (REC) RA [1, 4]: A.

Structure (SMILES): CC(C)C[C@H](NC(=O)[C@H](Cc1ccccc1)NC(=O)[C@H](Cc1ccccc1)NC(=O)[C@@H](N)CO)C(=O)N[C@@H](CCCNC(=N)N)C(=O)O [Ra-P5, SFFLR] (H-SFFLR-OH)
Relative potency (REC) RA [1, 4]: 4.4
Relative potency (REC) RLM [3]: 1.0

Structure (SMILES): CC(C)C[C@H](NC(=O)[C@H](Cc1ccccc1)NC(=O)[C@H](Cc1ccccc1)NC(=O)[C@@H](N)CO)C(=O)N[C@@H](CCCNC(=N)N)C(N)=O [Ra-P5-NH2, SFFLR-amide] (H-SFFLR-NH2)
Agonist (relaxation) activity ([1]; RA): considerably less potent than the comparable human receptor sequences
Relative potency (REC) RA [1, 4]: 0.2
Relative potency (REC) RLM [3]: 0.07
Agonist (contractile) activity ([3]; RLM): most potent of all of the peptides we examined

Structure (SMILES): CC(C)C[C@H](NC(=O)[C@H](Cc1ccccc1)NC(=O)[C@H](Cc1ccccc1)NC(=O)[C@@H](N)CO)C(=O)N[C@@H](CCCNC(=N)N)C(=O)N[C@@H](CC(N)=O)C(=O)N1CCC[C@H]1C(=O)O [Ra-P7, SFFLRNP] (H-SFFLRNP-OH)
Relative potency (REC) RA [1, 4]: 0.6
Relative potency (REC) RLM [3]: 0.3

Structure (SMILES): O=c1c(-c2ccc(O)cc2)coc2cc(O)cc(O)c12 [genistein, reference compound]
Effect of inhibitor on contractile action of carbachol ([3]; RLM): unaffected
Inhibition of the RLM response to P5-NH2 ([3]; mean ±S.E.M. for n=6): 77±3 % inhibition
Effect of inhibitor on contractile actions of P5--NH2 and Pr-P4 [2]: similarly effective

Structure (SMILES): COc1ccc2c(c1)c(CC(=O)O)c(C)n2C(=O)c1ccc(Cl)cc1 [indomethacin, reference compound]
Effect of inhibitor on RA relaxation responses to TRPs ([1]; RA, P5-NH2 and Pr-P4): not inhibited
Inhibition of the RLM response to P5-NH2 [3]: 40±6 % inhibition
Effect of inhibitor on contractile action of carbachol ([3]; RLM): unaffected
Effect of inhibitor on contractile actions of P5--NH2 and Pr-P4 [2]: blocked

Structure (SMILES): COc1cc2ncnc(Nc3cccc(Cl)c3)c2cc1OC [tyrphostin, Tyrphostin, reference compound]
Sensitivity of the RLM response to P5-NH2 to the inhibitor [3]: quite sensitive
Effect of inhibitor on contractile actions of P5--NH2 and Pr-P4 [2]: blocked

Second part, led by results:

Relative potency (REC) GLM [2]: 1.8
Structure (SMILES): CC(C)C[C@H](NC(=O)[C@H](CC(C)C)NC(=O)[C@H](Cc1ccccc1)NC(=O)[C@H](C)N)C(=O)N[C@@H](CCCNC(=N)N)C(=O)O [AP5, A42 FLLR46] (H-AFLLR-OH)
Relative potency (REC) RA [1]: 1.7

Relative potency (REC) GLM [2]: 0.1
Structure (SMILES): COC(=O)[C@H](CCCNC(=N)N)NC(=O)[C@H](CC(C)C)NC(=O)[C@H](CC(C)C)NC(=O)[C@H](Cc1ccccc1)NC(=O)[C@@H](N)CO [P5-OCH-3, S42 FLLR46 -O-Methyl]
Relative potency (REC) RA [1]: 0.1
Agonist (relaxation) activity ([1]; RA): partial agonist

Relative potency (REC) RLM [3]: 0.1
Structure (SMILES): CC(C)C[C@H](NC(=O)[C@H](CC(C)C)NC(=O)[C@H](Cc1ccccc1)NC(=O)[C@@H](N)CO)C(=O)N[C@@H](CCCN=C(N)N)C(=O)N[C@@H](CC(N)=O)C(=O)N1CCC[C@H]1C(N)=O [P7-NH2, S42 FLLRNP48 -amide] (H-SFLLRNP-NH2)

Relative potency (REC) GLM [2]: 4.5
Structure (SMILES): CC(C)C[C@H](NC(=O)[C@H](CC(C)C)NC(=O)[C@H](Cc1ccccc1)NC(=O)[C@@H](N)CO)C(=O)N[C@@H](CCCCN)C(=O)O [PK5, S42 FLLK46] (H-SFLLK-OH)
Relative potency (REC) RA [1]: 1.3

Relative potency (REC) GLM [2]: 1
Structure (SMILES): CCC(=O)N[C@@H](Cc1ccccc1)C(=O)N[C@@H](CC(C)C)C(=O)N[C@@H](CC(C)C)C(=O)N[C@@H](CCCNC(=N)N)C(=O)O [Pr-P4, N-propionyl-F43 LLR46] (Propionyl-FLLR-OH)
Relative potency (REC) RA [1]: 0.1
